Test system: Escherichia coli
Test: Inhibition of Escherichia coli beta-glucuronidase at 560 uM

- inhibition: 50%
Structure (SMILES): CO[C@@H]1[C@@H](O)[C@@H](O[C@@H]2[C@@H]([C@H](C)O)NC[C@@H]2O)O[C@H](CO)[C@H]1O[C@H]1OC[C@H](OC(C)=O)[C@H](OC(C)=O)[C@H]1O[C@H]1O[C@H](C(=O)O)[C@@H](O)[C@H](O)[C@H]1O

From ChEMBL document CHEMBL1157288, “Isolation and structure assignment of an iminotetrasaccharide from a cultured filamentous cyanobacterium Anabaena sp” (J Nat Prod, 2006)
